From patent publication US10844051B2, “Substituted oxazoles for the treatment of cancer” (THE ROYAL INSTITUTION FOR THE ADCANCEMENT OF …, priority 2015, dated 2020)

system: hSTING and/or mSTING; experiment: hSTING- or mSTING-dependent ISRE-luc reporter assay in 293T cells; assay type: cell-based; settings: 24 hours
Procedure: ISRE-luc (reporter), pRL-TK (internal control) and hSTING- or mSTING-expressing plasmids were transiently transfected into 293T cells. Cells were exposed to DMSO vehicle control or compounds for 24 hours. Experiments were done in triplicate.

Compound | activation of hSTING and/or mSTING in ISRE-luc reporter assay
COc1ccc2[nH]cc(CCN(Cc3nc(-c4cccc(F)c4)c(-c4cccc(F)c4)[nH]3)S(=O)(=O)c3ccccc3[N+](=O)[O-])c2c1 [Compound 1039] | activate hSTING and/or mSTING
O=[N+]([O-])c1ccccc1S(=O)(=O)N(Cc1ccc2[nH]ccc2c1)Cc1nc(-c2cccc(F)c2)c(-c2cccc(F)c2)[nH]1 [Compound 1040] | activate hSTING and/or mSTING
COc1ccc2[nH]cc(CCNCc3nc(-c4cccc(F)c4)c(-c4cccc(F)c4)[nH]3)c2c1 [Compound 1041] | activate hSTING and/or mSTING
Fc1cccc(-c2nc(CNCc3ccc4[nH]ccc4c3)[nH]c2-c2cccc(F)c2)c1 [Compound 1042] | activate hSTING and/or mSTING
Cn1cc(CNCc2nc(-c3cccc(F)c3)c(-c3cccc(F)c3)[nH]2)c2ccccc21 [Compound 1096] | activate hSTING and/or mSTING
Brc1ccc(N2CCN(Cc3nc(-c4ccccc4)c(-c4ccccc4)o3)CC2)cc1 [Compound 1097] | activate hSTING and/or mSTING
Clc1ccc(N2CCN(Cc3nc(-c4ccccc4)c(-c4ccccc4)[nH]3)CC2)cc1Cl [Compound 1098] | activate hSTING and/or mSTING
c1ccc(-c2nc(CN3CCN(c4ccccc4)CC3)[nH]c2-c2ccccc2)cc1 [Compound 1099] | activate hSTING and/or mSTING
OC1(c2ccccc2)CCN(Cc2nc(-c3ccccc3)c(-c3ccccc3)o2)CC1 [Compound 1103] | activate hSTING and/or mSTING
N#Cc1ccc(N2CCN(Cc3nc(-c4cccc(F)c4)c(-c4cccc(F)c4)[nH]3)CC2)cc1 [Compound 1104] | activate hSTING and/or mSTING
N#Cc1ccc(N2CCN(Cc3nc(-c4ccccc4)c(-c4ccccc4)[nH]3)CC2)cc1 [Compound 1120] | activate hSTING and/or mSTING
O=C(c1ccccc1)N1CCN(Cc2nc(-c3cccc(F)c3)c(-c3cccc(F)c3)[nH]2)CC1 [Compound 1121] | activate hSTING and/or mSTING
O=C(c1ccccc1)N1CCN(Cc2nc(-c3ccccc3)c(-c3ccccc3)[nH]2)CC1 [Compound 1122] | activate hSTING and/or mSTING
O=C(c1ccccc1)N1CCN(Cc2nc(-c3ccccc3)c(-c3ccccc3)o2)CC1 [Compound 1123] | activate hSTING and/or mSTING
c1ccc(-c2nc(CN3CCC(c4c[nH]c5ccccc45)CC3)oc2-c2ccccc2)cc1 [Compound 1124] | activate hSTING and/or mSTING
O=C(c1ccco1)N1CCN(Cc2nc(-c3ccccc3)c(-c3ccccc3)[nH]2)CC1 [Compound 1125] | activate hSTING and/or mSTING

Compound | activation of hSTING and/or mSTING in ISRE-luc reporter assay
O=C(c1ccco1)N1CCN(Cc2nc(-c3ccccc3)c(-c3ccccc3)o2)CC1 [Compound 1126] | activate hSTING and/or mSTING
OC1(c2cccc(C(F)(F)F)c2)CCN(Cc2nc(-c3ccccc3)c(-c3ccccc3)o2)CC1 [Compound 1127] | activate hSTING and/or mSTING
OC1(c2cccc(C(F)(F)F)c2)CCN(Cc2nc(-c3ccccc3)c(-c3ccccc3)[nH]2)CC1 [Compound 1129] | activate hSTING and/or mSTING
Fc1cccc(-c2nc(CN3CCC(c4c[nH]c5ccccc45)CC3)[nH]c2-c2cccc(F)c2)c1 [Compound 1137] | activate hSTING and/or mSTING
Oc1ccc(N2CCN(Cc3nc(-c4cccc(F)c4)c(-c4cccc(F)c4)[nH]3)CC2)cc1 [Compound 1139] | activate hSTING and/or mSTING
CNC(=O)c1ccc(C2CCN(Cc3nc(-c4cccc(F)c4)c(-c4cccc(F)c4)[nH]3)CC2)cc1 [Compound 1140] | activate hSTING and/or mSTING
COc1cccc(N2CCN(Cc3nc(-c4cccc(F)c4)c(-c4cccc(F)c4)[nH]3)CC2)c1 [Compound 1141] | activate hSTING and/or mSTING
COc1cccc(N2CCN(Cc3nc(-c4ccccc4)c(-c4ccccc4)o3)CC2)c1 [Compound 1142] | activate hSTING and/or mSTING
COc1cccc(N2CCN(Cc3nc(-c4ccccc4)c(-c4ccccc4)[nH]3)CC2)c1 [Compound 1143] | activate hSTING and/or mSTING
N#CCN(CCc1c[nH]c2ccccc12)Cc1nc(-c2ccccc2)c(-c2ccccc2)o1 [Compound 1188] | activate hSTING and/or mSTING
c1ccc(-c2nc(CN3CCN(Cc4ccccn4)CC3)oc2-c2ccccc2)cc1 [Compound 1285] | activate hSTING and/or mSTING
Fc1cccc(CN2CCN(Cc3nc(-c4ccccc4)c(-c4ccccc4)o3)CC2)c1 [Compound 1286] | activate hSTING and/or mSTING
COc1ccc(CN2CCN(Cc3nc(-c4ccccc4)c(-c4ccccc4)o3)CC2)cc1 [Compound 1287] | activate hSTING and/or mSTING
Fc1ccc(CN2CCN(Cc3nc(-c4ccccc4)c(-c4ccccc4)o3)CC2)cc1 [Compound 1288] | activate hSTING and/or mSTING
COc1cccc(CN2CCN(Cc3nc(-c4ccccc4)c(-c4ccccc4)o3)CC2)c1 [Compound 1289] | activate hSTING and/or mSTING
Fc1ccccc1CN1CCN(Cc2nc(-c3ccccc3)c(-c3ccccc3)o2)CC1 [Compound 1357] | activate hSTING and/or mSTING

same assay, conditions: 24 hours, 10 μM

Compound | activation of hSTING and/or mSTING in ISRE-luc reporter assay
FC(F)(F)c1cccc(CCc2nc(-c3ccccc3)c(-c3ccccc3)o2)c1 [Compound 1011] | activate hSTING and/or mSting
Fc1cccc(-c2nc(/C=C/c3cc(C(F)(F)F)cc(C(F)(F)F)c3)oc2-c2cccc(F)c2)c1 [Compound 1012] | activate hSTING and/or mSting
Fc1cccc(-c2nc(/C=C/c3cccs3)oc2-c2cccc(F)c2)c1 [Compound 1013] | activate hSTING and/or mSting
COc1cccc(-c2nc(CCc3cc(C(F)(F)F)cc(C(F)(F)F)c3)oc2-c2cccc(OC)c2)c1 [Compound 1033] | activate hSTING and/or mSting
Fc1cccc(-c2nc(/C=C/c3ccoc3)oc2-c2cccc(F)c2)c1 [Compound 1035] | activate hSTING and/or mSting
Fc1cccc(-c2nc(/C=C/c3ccsc3)oc2-c2cccc(F)c2)c1 [Compound 1036] | activate hSTING and/or mSting
Fc1cccc(-c2nc(/C=C/c3ccsc3)[nH]c2-c2cccc(F)c2)c1 [Compound 1037] | activate hSTING and/or mSting
Fc1cccc(-c2nc(CN3CCC(c4cccc(C(F)(F)F)c4)CC3)[nH]c2-c2cccc(F)c2)c1 [Compound 1173] | activate hSTING and/or mSTING
Fc1cccc(-c2nc(CN3CCN(c4ccc(Br)cc4)CC3)[nH]c2-c2cccc(F)c2)c1 [Compound 1174] | activate hSTING and/or mSTING
Fc1cccc(-c2nc(CN3CCN(Cc4ccccc4)CC3)[nH]c2-c2cccc(F)c2)c1 [Compound 1175] | activate hSTING and/or mSTING
O=C(c1cccc(F)c1)N1CCN(Cc2nc(-c3cccc(F)c3)c(-c3cccc(F)c3)[nH]2)CC1 [Compound 1177] | activate hSTING and/or mSTING
O=C(c1ccccc1F)N1CCN(Cc2nc(-c3cccc(F)c3)c(-c3cccc(F)c3)[nH]2)CC1 [Compound 1178] | activate hSTING and/or mSTING
O=C(c1ccc(F)cc1)N1CCN(Cc2nc(-c3cccc(F)c3)c(-c3cccc(F)c3)[nH]2)CC1 [Compound 1179] | activate hSTING and/or mSTING

same assay, conditions: 24 hours, 20 μM

Compound | activation of hSTING and/or mSTING in ISRE-luc reporter assay
O=C(c1cccc(F)c1)N1CCN(Cc2nc(-c3ccccc3)c(-c3ccccc3)o2)CC1 [Compound 1180] | activate hSTING and/or mSTING
Oc1cccc(N2CCN(Cc3nc(-c4cccc(F)c4)c(-c4cccc(F)c4)[nH]3)CC2)c1 [Compound 1181] | activate hSTING and/or mSTING
Oc1cccc(N2CCN(Cc3nc(-c4ccccc4)c(-c4ccccc4)o3)CC2)c1 [Compound 1182] | activate hSTING and/or mSTING
Oc1ccccc1N1CCN(Cc2nc(-c3cccc(F)c3)c(-c3cccc(F)c3)[nH]2)CC1 [Compound 1183] | activate hSTING and/or mSTING
Oc1ccccc1N1CCN(Cc2nc(-c3ccccc3)c(-c3ccccc3)o2)CC1 [Compound 1184] | activate hSTING and/or mSTING
c1ccc(-c2nc(CN3CCN(c4ccccn4)CC3)oc2-c2ccccc2)cc1 [Compound 1227] | activate hSTING and/or mSTING
